These results are taken from PubChem BioAssay (NCI).

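Dose response: 5 concentrations. Exposure: 48 h. Format: 96-well plates. Endpoint: linear interpolation; highest concentration if not reached. At the TGI there is no net growth.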 A value given as a limit tells only on which side of the number the result lay.

Among the test systems are RXF-631 renal; DLD-1 colon; XF 498 CNS; LXFL 529 NSCLC; DMS 273 small cell lung; HOP-18 NSCLC; KM20L2 colon.
Assay in all cases: growth of human tumour cells (NCI), 48 h

On to `COc1c(OC2OC(CO)C(O)C(O)C2O)cc2c(c1OC)-c1ccc(OC)c(=O)cc1[C@@H](NC(C)=O)CC2` (some centres undefined), for which the TGI was more than 100 µM in the test on RXF-631 renal; more than 100 µM in the test with DLD-1 colon; more than 93 µM in the test on XF 498 CNS; more than 100 µM in the test on LXFL 529 NSCLC; more than 100 µM with DMS 273 small cell lung; more than 100 µM with HOP-18 NSCLC. The compound also came in with a TGI with KM20L2 colon of more than 100 µM.
As for `CCCCCCC(=O)CC(=O)C(=O)Nc1ccccc1C`, the TGI in the test on RXF-631 renal, in the test on DLD-1 colon, with XF 498 CNS, with LXFL 529 NSCLC, in the test on DMS 273 small cell lung and with HOP-18 NSCLC was more than 100 µM in each case. The TGI with KM20L2 colon was more than 100 µM.
`CCOc1cc[n+](C(=C=[N-])C#N)cc1`: the TGI in the test on RXF-631 renal, with DLD-1 colon, in the test with XF 498 CNS, in the test on LXFL 529 NSCLC, with DMS 273 small cell lung and with KM20L2 colon was more than 100 µM in each case.
As to `NNC(=O)N/N=C1/C(=O)N(c2ccc(Cl)c(Cl)c2)C(=O)C(=O)C1c1nc2ccccc2o1` (centres undefined), the TGI with RXF-631 renal, with DLD-1 colon, in the test with LXFL 529 NSCLC, with DMS 273 small cell lung, with HOP-18 NSCLC and in the test on KM20L2 colon was more than 100 µM in each case.
For the compound `Nc1ncnc2c1ncn2COC/C=C/I`, the TGI in the test with RXF-631 renal, with DLD-1 colon, with XF 498 CNS, in the test on LXFL 529 NSCLC, in the test with DMS 273 small cell lung and with HOP-18 NSCLC was more than 100 µM throughout.
Turning to `CC(=O)N1CCN(C=S)CC1`, the TGI in the test with RXF-631 renal, in the test on DLD-1 colon, in the test with XF 498 CNS, in the test on LXFL 529 NSCLC, in the test with DMS 273 small cell lung and with KM20L2 colon was more than 100 µM in each case.
Take `Cc1ccc(NC(=O)CC2C(=O)Nc3ccccc3S2(=O)=O)cc1C` (centres undefined): the TGI in the test on RXF-631 renal, with DLD-1 colon, in the test on XF 498 CNS, in the test on LXFL 529 NSCLC, in the test on DMS 273 small cell lung and in the test with KM20L2 colon was more than 100 µM each time.
As to `CCCCCC/C(CC(=O)CCC(=O)NCCc1ccccc1)=N\NC(=O)c1ccc2ccccc2c1O`, the TGI in the test with RXF-631 renal was more than 100 µM; with DLD-1 colon it was more than 100 µM; in the test on XF 498 CNS, more than 100 µM; in the test on LXFL 529 NSCLC, more than 100 µM; with HOP-18 NSCLC, 63.9 µM; with KM20L2 colon it was more than 100 µM.
For the compound `Cc1c(C(=O)Nc2ccc(Cl)cc2)nc(N)nc1-c1cccc(Cl)c1`, the TGI in the test with RXF-631 renal, in the test on DLD-1 colon, with DMS 273 small cell lung, in the test with HOP-18 NSCLC and with KM20L2 colon was more than 100 µM each time.
Consider `Cc1ccc(SSCCCCS(=O)O)cc1`, for which the TGI with RXF-631 renal was 77.6 µM; in the test with DLD-1 colon, more than 100 µM; with XF 498 CNS, 32 µM; in the test with LXFL 529 NSCLC, 25.5 µM; in the test with DMS 273 small cell lung it was 65.7 µM; in the test on HOP-18 NSCLC it was more than 100 µM. Moreover, the TGI in the test on KM20L2 colon was 46.9 µM.
With `C=C1CC(CC(=O)C(C)CC2CC(=C)C(=O)O2)OC1=O` (centres undefined), the TGI is more than 100 µM in the test on RXF-631 renal; 30.4 µM in the test with DLD-1 colon; 43.3 µM in the test on XF 498 CNS; 27.8 µM in the test on LXFL 529 NSCLC; 57.5 µM with DMS 273 small cell lung; 47.3 µM in the test with HOP-18 NSCLC. Also, in the test with KM20L2 colon, the TGI is more than 100 µM.
In the case of `CC(=O)Nc1ccccc1S(=O)c1ccccc1` (centres undefined), the TGI with RXF-631 renal, in the test with DLD-1 colon, in the test on XF 498 CNS, in the test with LXFL 529 NSCLC, in the test on DMS 273 small cell lung and in the test on HOP-18 NSCLC was more than 100 µM throughout. Moreover, in the test on KM20L2 colon, the TGI is more than 100 µM.
Consider `O=S1Cc2ccccc2CSS1` (centres undefined), for which the TGI with RXF-631 renal worked out at 48.5 µM; in the test with DLD-1 colon it was 41.1 µM; in the test on XF 498 CNS, 34 µM; in the test with LXFL 529 NSCLC it was 27.2 µM; with DMS 273 small cell lung it was 24.1 µM; in the test on HOP-18 NSCLC it was 89.1 µM. This compound also returned a TGI in the test with KM20L2 colon of 41.9 µM.
On to `C/C(=N\NS(=O)(=O)c1ccccc1)c1ccc[n+]([O-])n1`, for which the TGI in the test on RXF-631 renal, in the test on DLD-1 colon, with LXFL 529 NSCLC, in the test on DMS 273 small cell lung, with HOP-18 NSCLC and in the test with KM20L2 colon was more than 100 µM throughout.
